Results taken from ChEMBL document CHEMBL1156829 (Proc Natl Acad Sci U S A, 2008).
“And” between values parts separate entries of the source, which are not always exact repeats. Identical values can stand only once.

Experiments:
Plasmodium falciparum [1] = assay: NOVARTIS: Inhibition of Plasmodium falciparum 3D7 (drug-susceptible) proliferation in erythrocyte-based infection assay; assay type: functional, organism-based
Plasmodium falciparum [2] = assay: NOVARTIS: Inhibition of Plasmodium falciparum W2 (drug-resistant) proliferation in erythrocyte-based infection assay; assay type: functional, organism-based; conditions: read-out: EC50
Huh-7 = assay: (§1) NOVARTIS: Cytotoxicity against human hepatocellular carcinoma cell line (Huh7); assay type: toxicity, cell-based
[3] = as §1; assay type: toxicity, cell-based, Huh-7; conditions: Huh7 cells (hepatocellular carcinoma cell line)

Row | SMILES | EC50 (Plasmodium falciparum [1]) | EC50 (Plasmodium falciparum [2]) | CC50 (Huh-7; huh-7, read-out: CC50) [nM] | EC50 (Plasmodium falciparum [1]; Plasmodium falciparum, 3D7) [nM] | EC50 (Plasmodium falciparum [2]; Plasmodium falciparum, W2) [nM] | CC50 (Huh-7; huh-7) | CC50 [3] [nM]
1 | Cc1[nH]c2ccccc2c1/C=C/c1cc[n+](C)cc1 | 175 nM | 215 nM | > 100000 |  |  |  | 
2 | CC[n+]1c(C=CN(C)c2ccccc2)sc2ccc(OC)cc21.[O-][Cl+3]([O-])([O-])[O-] |  |  | > 100000 | 145 | 255 |  | 
3 | CN(C)c1ccc(C=CC=Cc2cccc[n+]2C)cc1.[O-][Cl+3]([O-])([O-])[O-] |  |  | > 100000 | 283 | 178 |  | 
4 | CC[n+]1c(/C=C/c2ccc(N(C)C)cc2)sc2cc(NC(C)=O)ccc21 | 1500 nM | 686 nM and 341 nM | > 100000 | 953 |  |  | 
5 | CN(C)c1ccc(C=CC=Cc2cc[n+](C)cc2)cc1.[O-][Cl+3]([O-])([O-])[O-] |  |  | > 100000 | 770 | 532 |  | 
6 | Cc1cc(=O)n(-c2nc(-c3ccccc3O)nc3ccccc23)[nH]1 |  |  |  | 824 | 752 | No fit | 
7 | CCN1/C(=C/c2sc3ccccc3[n+]2CC)Sc2ccccc21 | 187 nM | 10.8 nM | 11100 |  |  |  | 
8 | CN(C)c1ccc(C=CC=Cc2cc[n+](C)cc2)cc1 |  |  | > 10000 | 640 | 506 |  | 
9 | C[n+]1c(C=CNc2ccccc2)n(-c2ccccc2)c2ccc(Cl)cc21 | 182 nM | < 14.5 nM | > 10000 |  |  |  | 
10 | OC(CN1CCN(C/C=C/c2ccccc2)CC1)Cn1c2ccc(Cl)cc2c2cc(Cl)ccc21 (stereo not given) |  |  |  | 660 | 162 | No fit | 
11 | CCN1C(=Cc2sc3ccc(O)cc3[n+]2CC)C=Cc2cc(C)ccc21 | 188 nM and 376 nM | 383 nM | > 10000 |  | 291 |  | 5790
12 | Cc1nn(CC(O)Cn2c3ccc(Cl)cc3c3cc(Cl)ccc32)c(C)c1Br (stereo not given) |  |  |  | 602 | 190 | No fit | 
13 | COc1ccc(/C=C2/SC(=Nc3ccccc3)NC2=O)c(OC)c1 | 660 nM | 250 nM | > 100000 | 539 | 428 |  | 
14 | CC[n+]1c(C=CN(C)c2ccccc2)sc2ccc(OC)cc21 |  |  | > 10000 | 920 | 400 |  | 
15 | C[n+]1ccccc1C=Cc1cc(Br)ccc1O |  |  | > 10000 | 302 | 441 |  | 
16 | COC(=O)C1=CN(Cc2ccc(OC)cc2)C=C(C(=O)OC)C1c1cccc([N+](=O)[O-])c1 |  |  |  | 2120 | > 1250 | No fit | 
17 | COc1ccc(C=C2SC(Nc3ccc(F)cc3)=NC2=O)c(OC)c1 | 277 nM | 532 nM | 12000 | 266 | 753 |  | 12200
18 | CCCCN1C(=Cc2cccc[n+]2C)Sc2cc(NC(C)=O)ccc21 |  | > 1250 nM | > 10000 | > 1110 |  |  | 
19 | Cc1cccc(N=C2NC(=O)/C(=C\c3ccc(N(C)C)cc3)S2)c1 | 1180 nM | 1640 nM and 508 nM | > 100000 | 784 |  |  | 
20 | Cc1cc(/C=C2\Sc3ccccc3N2C)[n+](C)c2ccccc12 | 90.6 nM and 39.2 nM | 80.2 nM | 11500 |  | 94 |  | 6370
21 | C=CC[n+]1c(C=C2C=CC=CN2C)sc2ccccc21 [listing 1 of 2 here] |  | > 1010 nM | > 10000 | 491 |  |  | 
22 | C=CC[n+]1c(C=C2C=CC=CN2C)sc2ccccc21 [listing 2 of 2 here] | 281 nM | 403 nM | > 100000 |  |  |  | 
23 | COc1ccc2c(ccc(/C=C3\C=CC=CN3C)[n+]2C)c1 | 581 nM | 524 nM | > 100000 | 316 | 886 |  | 
24 | CCN1/C(=C/C=C/c2oc3ccc(-c4ccccc4)cc3[n+]2CC)Oc2ccc(-c3ccccc3)cc21 |  | > 569 nM | 10700 | > 1720 | 1060 |  | > 10000
25 | CC[n+]1c(C=C2Sc3ccccc3N2CCO)sc2ccccc21 | 336 nM | 511 nM | > 100000 |  |  |  | 
